# Measurements reported in patent publication US11951167B2, “Targeted liposomes” (GEORGETOWN UNIVERSITY, priority 2012, dated 2024).
# Key:
# [1] = system: U251 cells; experiment: XTT cell viability, liposome TMZ vs free TMZ; assay type: cell-based, human; settings: at 16-46.3 μM TMZ
# Protocol: Studies were carried out to compare the efficacy of standard free (unencapsulated) TMZ; and unliganded TMZ-containing liposomes (Lip-TMZ) The Lip-TMZ was prepared as described above in Example 1 using a liposome concentration of 2 mM. The zeta potentials of the Lip-TMZ molecules ranged from 35.6-40.1 mV. The TMZ concentration used was varied from 1 to about 250 uM. The ratios of Liposome to TMZ was 0.5:1, 1:1 or 2:1 (molar ratio).
# Human brain tumor derived U251 cells were plated in triplicate at 2×10^3 per well in a 96-well plate. Following overnight incubation, the medium was replaced with serum-free medium, overlaid with 100 μL of indicated concentrations of either Lip-TMZ, or free TMZ, incubated for 5 h, and then supplemented with fetal bovine serum. After incubation for an additional 91 h, cell viability was determined by the XTT assay as described previously (Rait A, Pirollo K F, Rait V, et al. Inhibitory effects of the combination of HER-2 antisense oligonucleotide and chemotherapeutic agents used for the treatment of human breast cancer. Cancer Gene Ther 2001; 8:728-39.). Formazan absorbance, which correlates to cell viability, was measured at 450 nm using a microplate reader (Bio-Rad, Hercules, Calif.).
# [2] = system: intracranial U87MG-luc2 glioblastoma tumor xenografts; experiment: Efficacy in intracranial GBM xenografts (MRI, BLI, body weight, survival)
# Protocol: Intra cranial GBM tumors were induced in 5-6 week old female athymic nude mice by stereotaxic inoculation of U87MG-luc2 cells that stably carry the luciferase gene. Seven to ten days post-inoculation, tumors were evaluated by bioluminescence using Xenogen IVIS in vivo imaging system (Caliper Life Sciences) and mice were evenly divided into treatment groups. Treatment was initiated on the day of randomization (day 0). Animals were injected intravenously (i.v.) via the tail vein with 5 mg/kg (per injection per mouse) of TMZ alone or TfRscFv-targeted TMZ cationic liposome complex (scL-TMZ). […] Mice were injected twice per week with each reagent for 5 weeks. Control animals (Vehicle) received Liposome only (no TMZ, no TfRscFv).
# Assessment of in vivo efficacy: The in vivo response to treatment was evaluated based upon the changes in tumor growth, body weight change, and overall survival. Tumor growth was monitored by bioluminescence imaging (BLI) using Xenogen IVIS in vivo imaging system before, during, and after the treatments at the indicated date. […] The bioluminescence intensity of the brain tumors, a measure of tumor size/growth, was measured and compared between treatment groups. Half-way through treatment (after mice received 3 weeks of treatment with each reagent), all animals were scanned with magnetic resonance imaging (MRI) to evaluate the brain tumor. […] Tumor volume was calculated from the MRI scan and compared between treatment groups. Body weight change was monitored weekly. Overall survival was recorded and plotted by Kaplan-Meier method.
# In a second experiment, different doses/number of injections per week of scL-TMZ, prepared as described herein, were compared. Groups of mice bearing U87MG-luc2 glioblastoma intracranial xenograft tumors were iv tail vein injected for 5 weeks with scL-TMZ at: 2.5 mg/kg one injection per week; 5 mg/kg one injection per week; or 5 mg/kg two injections per week and survival determined.
# [3] = system: U87MG-Luc xenograft brain tumors; experiment: Intracranial tumor growth (BLI, MRI), scL-p53 plus TMZ; assay type: in vivo, nude mice; settings: TMZ 5.0 mg/kg, scL-p53 30 ug DNA/mouse, i.v. 2x/week, 10 injections
# Protocol: An experiment was performed to examine tumor growth inhibition induced by the sensitization of IC brain tumors to TMZ by systemic administration of scL-p53 prepared as described in U.S. Pat. No. 7,780,882. U87MG-Luc xenograft brain tumors were induced in nude mice by intracranially inoculating U87MG-luc cells. This cell line, obtained from Caliper Life Sciences, has been modified to stably express the Luciferase gene. 10 days post-inoculation, tumor-bearing animals were i.v. tail vein injected with TMZ alone (5.0 mg/kg/injection), scL-p53 alone (30 ug DNA/mouse/injection) or TMZ in combination with scL-p53. As a control, one group received PBS (vehicle). All i.v. injections were administered 2×/week to a total of 10 injections. To assess tumor response, bioluminescence imaging (BLI) was performed using IVIS® Imaging System's Xenogen. FIG. 24 is a comparison of in vivo anti-tumor efficacy of the various groups. Bioluminescence signals which correlate to tumor size are shown in a color map. Red color (at the top of the scale bar): the stronger signal, Violet color (at the bottom of the scale bar): the weaker signal. […] The horizontal bar indicates the duration of treatment (Last treatment=Day 24).
# To confirm the bioluminescence findings, the mice were also imaged by MRI, without contrast agent, before and after the mice received 3 weeks of treatment. […]
# [4] = system: U87MG-Luc xenograft brain tumors; experiment: Survival of mice with intracranial GBM tumors (Kaplan-Meier); assay type: in vivo, nude mice
# Protocol: U87MG-Luc xenograft brain tumors were induced in nude mice as described above. 10 days post-inoculation, tumor-bearing animals were i.v. tail vein injected with TMZ alone (25.0 mg/kg/injection), scL-p53 alone (30 ug DNA/mouse/injection) (prepared as described in U.S. Pat. No. 7,780,882) or TMZ in combination with scL-p53. As a control, one group received PBS (vehicle). All i.v. injections were administered 2×/week to a total of 10 injections. The animals were monitored 2-3 times/week and euthanized when moribund. The gray bar in FIG. 27 indicates the duration of treatment.
# [5] = system: intracranial T98G tumors; experiment: Survival of mice with TMZ resistant intracranial GBM tumors; assay type: in vivo, athymic nude mice; settings: TMZ 100 mg/m^2 i.v. daily for 14 days; scL-p53 30 ug DNA twice weekly for 2 weeks
# Protocol: Thus an experiment was performed to assess survival of mice bearing intracranial tumors derived from TMZ resistant human GBM cell line T98G. Athymic nude mice were intracranially inoculated with T98G human glioblastoma cell line. Ten days after the inoculation, animals were imaged by MRI and evenly divided into 3 groups. Treatment was started immediately after imaging. The animals were iv treated with 100 mg/m^2 of TMZ once a day for 14 consecutive days, iv administered scL-p53 (30 ug DNA/injection) (prepared as described in U.S. Pat. No. 7,780,882) twice weekly for 2 weeks, or the combination of both treatments. Survival was monitored. The number of mice surviving/group at day 14 is indicated for each group. […] In contrast, 4 of 5 mice that had received the combination therapy were still surviving.
# [6] = 5 mg/kg i.v. twice per week for 5 weeks
structure (smiles),measurement,setting,value
"Cn1nnc2c(C(N)=O)ncn2c1=O [TMZ, temozolomide]",cell killing effect,[1],virtually no cell killing effect
same,long term survival (Kaplan-Meier),[2]; [6],extended the lifespan
same,time tumor growth was controlled (BLI),[2]; [6],~2.5 weeks
same,tumor growth by MRI,"[2]; 5 mg/kg i.v. twice per week, after 3 weeks (6 injections)",some tumor growth inhibition
same,IC tumor growth during treatment (BLI),[3],some minimal effect
same,day by which all of the mice succumbed to their tumor,[4]; TMZ 25.0 mg/kg,~155 days
same,Median Survival,"[4]; TMZ 25.0 mg/kg, scL-p53 30 ug DNA/mouse, i.v. 2x/week, 10 injections",112 days
same,Survival Prolongation (%),[4]; ratio of the median survival of untreated GBM xenografts,348%
same,mice surviving at day 14,[5],a significant number of animals succumbed
